PubChem BioAssay (NCI)
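Interpolation was linear, between the two tested concentrations surrounding the appropriate level; five concentrations were tested over 48 hours in 96-well plates. Definition used: TGI = concentration required for complete inhibition of growth.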

Tests used:
Test in all cases: NCI-60 cell line screen, 48 h
[1] = tested on: MDA-MB-435
[2] = tested on: SK-MEL-2 melanoma
[3] = tested on: RPMI-8226 leukemia
[4] = tested on: UACC-257 melanoma
[5] = tested on: MDA-N
[6] = tested on: IGROV1 ovarian
[7] = tested on: HL-60(TB) leukemia
[8] = tested on: MCF7 breast
[9] = tested on: HOP-62 NSCLC
[10] = tested on: SN12C renal
[11] = tested on: OVCAR-5 ovarian
[12] = tested on: PC-3 prostate
[13] = tested on: 786-0 renal
[14] = tested on: SF-268 CNS
[15] = tested on: A549 NSCLC
[16] = tested on: SF-295 CNS
[17] = tested on: SW-620 colon
[18] = tested on: ACHN renal
[19] = tested on: SK-OV-3 ovarian
[20] = tested on: HS 578T breast
[21] = tested on: COLO 205 colon
[22] = tested on: HOP-92 NSCLC
[23] = tested on: HCT-116 colon
[24] = tested on: U251 CNS
[25] = tested on: K-562 leukemia
[26] = tested on: HCT-15 colon
[27] = tested on: OVCAR-8 ovarian
[28] = tested on: NCI-H522 lung
[29] = tested on: NCI-H460 lung
[30] = tested on: MALME-3M melanoma
[31] = tested on: M14 melanoma
[32] = tested on: TK-10 renal
[33] = tested on: KM12 colon
[34] = tested on: MOLT-4 leukemia
[35] = tested on: MDA-MB-231 breast
[36] = tested on: NCI-H226 lung
[37] = tested on: OVCAR-4 ovarian
[38] = tested on: CCRF-CEM leukemia
[39] = tested on: SNB-75 CNS
[40] = tested on: EKVX NSCLC
[41] = tested on: A498 renal
[42] = tested on: SF-539 CNS
[43] = tested on: OVCAR-3 ovarian
[44] = tested on: SK-MEL-28 melanoma
[45] = tested on: HCC-2998 colon
[46] = tested on: SK-MEL-5 melanoma
[47] = tested on: DU-145 prostate
[48] = tested on: CAKI-1 renal
[49] = tested on: SNB-19 CNS
[50] = tested on: BT-549 breast
[51] = tested on: HT29 colon
[52] = tested on: T-47D breast
[53] = tested on: NCI-H23 lung
[54] = tested on: SR leukemia
[55] = tested on: LOX IMVI melanoma
[56] = tested on: UACC-62 melanoma
[57] = tested on: UO-31 renal
[58] = tested on: RXF 393 renal
[59] = tested on: NCI/ADR-RES ovarian

Measured: TGI

O=C1OC(c2ccco2)=N/C1=C\c1cccc([N+](=O)[O-])c1
> 100 µM: [1] | [2] | [3] | [4] | [5] | [6] | [7] | [8] | [9] | [10] | [11] | [12] | [13] | [14] | [15] | [16] | [17] | [18] | [19] | [20] | [21] | [22] | [23] | [24] | [25] | [26] | [27] | [28] | [29] | [30] | [31] | [32] | [33] | [34] | [35] | [36] | [37] | [38] | [39] | [40] | [41] | [42] | [43] | [44] | [45] | [46] | [47] | [48] | [49] | [50] | [51] | [52] | [53] | [54] | [55] | [56]

COC(=O)C(NC(=O)c1ccccc1)c1ccco1 (centres undefined)
> 100 µM: [1] | [3] | [4] | [5] | [6] | [7] | [8] | [9] | [10] | [57] | [11] | [12] | [13] | [58] | [14] | [15] | [16] | [17] | [18] | [19] | [20] | [22] | [23] | [24] | [25] | [26] | [27] | [29] | [30] | [31] | [32] | [33] | [34] | [36] | [38] | [39] | [40] | [41] | [42] | [43] | [44] | [45] | [46] | [47] | [49] | [50] | [51] | [52] | [59] | [53] | [54] | [56]

O=c1[nH]c(Nc2nc3ccccc3[nH]2)nc2c1CCC2
77.8 µM: [39]
51.1 µM: [35]
> 100 µM: [1] | [2] | [4] | [5] | [6] | [7] | [8] | [9] | [10] | [57] | [11] | [12] | [13] | [58] | [14] | [15] | [16] | [17] | [18] | [19] | [21] | [22] | [23] | [24] | [25] | [26] | [27] | [28] | [29] | [30] | [31] | [32] | [36] | [37] | [38] | [41] | [42] | [43] | [44] | [45] | [46] | [47] | [48] | [49] | [50] | [51] | [59] | [53] | [54] | [55] | [56]
63.5 µM: [20]

CC(C)=CC(=O)C[C@H]1C(=O)O[C@@H]2C[C@H]3C(C)=CC(=O)[C@@H](O)[C@]3(C)[C@H]3[C@@]4(O)OC[C@]32[C@@H]1[C@@H](C)[C@H]4O
0.166 µM: [43]
4.98 µM: [19]
0.274 µM: [2]
0.0619 µM: [30]
0.103 µM: [39]
12.8 µM: [33]
4.25 µM: [40]
> 100 µM: [7] | [34] | [54]
0.305 µM: [1]
> 50.2 µM: [48]
0.144 µM: [52]
11 µM: [59]
1.05 µM: [37]
0.907 µM: [26]
0.241 µM: [12]
1.3 µM: [25]
0.137 µM: [24]
1.8 µM: [9]
0.0918 µM: [38]
0.114 µM: [23]
0.608 µM: [4]
1.15 µM: [41]
0.512 µM: [32]
0.328 µM: [22]
0.283 µM: [27]
0.042 µM: [53]
0.258 µM: [20]
0.152 µM: [16]
0.743 µM: [29]
0.12 µM: [47]
6.26 µM: [17]
0.443 µM: [56]
0.329 µM: [5]
0.368 µM: [45]
0.21 µM: [14]
0.838 µM: [13]
< 0.0156 µM: [36]
0.115 µM: [31]
0.205 µM: [50]
0.834 µM: [18]
0.941 µM: [6]
0.0447 µM: [3]
0.381 µM: [35]
0.0612 µM: [46]
0.172 µM: [44]
